Where a name gives a salt, the structure may show the parent alone.
Tests used:
[1] = Test Example 2: presence of prodrug in mouse and absorbency, caudal vein administration, plasma AUC; type: in vivo, mice (Balb/cA, male); conditions: for AUC(0-t): male, Balb/cA, caudal vein, physiological saline, mouse plasma, unchanged prodrug; for presence of prodrug in mouse (conversion into active compound): caudal vein administration of disodium salts
Procedure: The dosage amounts of a disodium salt of the compound of Example 1, a disodium salt of the compound of Example 2, a disodium salt of the compound of Example 3, a disodium salt of the compound of Example 4 and a disodium salt of the compound of Example 5 were set to be 26 mg/5 mL/kg, 12 mg/5 mL/kg, 12 mg/5 mL/kg, 12 mg/5 mL/kg, and 11 mg/5 mL/kg, respectively. Solutions for administration were prepared by dissolving the compounds in physiological saline so as to satisfy the above dosage amounts, respectively. Note that solutions for administration of disodium salts of the compounds of Examples 1 to 4 were prepared by adding 2 molar equivalents of sodium hydroxide.
Mice (Balb/cA, male) not fasted were each immobilized on a specific fixed table, sterilized with ethanol for disinfection. Each of the solutions prepared above was administered through the caudal vein by use of a syringe and a needle.
Blood was taken from the facial vein, 0.25, 0.5, 1, 2, 4 and 6 hours after administration by use of a specific needle (animal lancet) and a heparin-coated hematocrit tube.
The blood sampled were immediately centrifuged (13000 rpm, 2 minutes, 4° C.) to prepare the plasma samples. After proteins were removed from the plasma samples, the concentrations of the test compound in the plasma samples were measured by LC/MS/MS.
The value of AUC was calculated using analysis software such as Phoenix (registered trademark), WinNonlin (registered trademark).
The AUC (AUC 0-6 hr) values obtained in the time period of 0 to 6 hours after administration of sodium salts of the compounds of Example 1 to 4 are shown in Table 4; and the AUC (AUC 0-6 hr) values obtained in the time period of 0 to 6 hours after administration of a sodium salt of the compound of Example 5 are shown in Table 5. In Table 4 and Table 5, “Comparative Example 1”, “Comparative Example 2” and “Comparative Example 3” represent the “compound (Br form) of Comparative Example 1”, the “compound (I form) of Comparative Example 2”, and the “compound (Cl form) of Comparative Example 3”, respectively.

[2] = Test Example 1: presence of prodrug in mouse and absorbency, oral administration, plasma AUC; type: in vivo, mice (Balb/cA, male); conditions: for presence of prodrug in mouse (conversion into active compound): oral administration
Procedure: The dosage amounts of the compound of Comparative Example 1, a triethylamine salt of the compound of Example 1, the compound of Comparative Example 2 and the compound of Example 2 were set to be 50 mg/10 mL/kg, 62 mg/10 mL/kg (50 mg/10 mL/kg in terms of free compound), 3 mg/10 mL/kg, and 3.6 mg/10 mL/kg, respectively. Solutions for administration were prepared with a 0.5% aqueous solution of HPMC so as to satisfy the above dosage amounts. Note that a solution for administration of a triethylamine salt of the compound of Example 1 was prepared by adding 1 molar equivalent of triethylamine.
The dosage amounts of the compound of Comparative Example 3 and the compound of Example 5 were set to be 3 mg/10 mL/kg and 3.8 mg/10 mL/kg, respectively. Solutions thereof for administration were prepared with a 0.5% aqueous solution of HPMC so as to satisfy the above dosage amounts.
Note that, the “mg/10 mL/kg” means as follows: for example “50 mg/10 mL/kg” means that 50 mg of a test compound per body-weight (1 kg) of a mouse was dispersed or dissolved in a solution (10 mL) for administering a compound. The same applies hereinafter.
The solutions for administration prepared above were orally administered to mice (Balb/cA, male) not fasted each by use of an oral administration sonde.
The mice were anesthetized with isoflurane 0.5, 1, 2, 4 and 6 hours after administration and blood was taken from the facial vein by use of a specific needle (animal lancet) and a heparin-coated hematocrit tube.
The blood sampled was immediately centrifuged (13000 rpm, 2 minutes, 4° C.) to prepare the plasma samples. After proteins were removed from the plasma samples, the concentrations of the test compound in the plasma samples were measured by LC/MS/MS.
The value of “area under the curve” (AUC) of drug concentration in blood versus time was calculated using analysis software such as Phoenix (registered trademark) WinNonlin (registered trademark).
More specifically, the results of the compounds of Comparative Examples 1 and 2 and triethylamine salt of Example 1, and the compound of Example 2 are shown in Table 2; whereas, the results of the compounds of Comparative Example 3 and Example 5 are shown in Table 3. In Table 2 and Table 3, “Comparative Example 1”, “Comparative Example 2”, and “Comparative Example 3” represent the “compound (Br form) of Comparative Example 1”, the “compound (I form) of Comparative Example 2” and the “compound (Cl form) of Comparative Example 3”, respectively.

DU145 = experiment: Test Example 3 growth suppression activity, CellTiter-Glo; type: cell-based; conditions: DU-145, 72 h; DU145, Human prostate cancer, 3 days
Procedure: (§1) Human tumor cell lines different in type were suspended in mediums, seeded in individual wells of a multi-well plate and cultured. On the day after initiation of culture, serially diluted solutions of a compound were added. Culture was carried out for further 3 days. Cells were counted by a CellTiter-Glo (manufactured by Promega KK) in accordance with the protocol recommended by Promega KK. Cell viability was calculated in accordance with the equation shown below and the concentration (IC50 (μM)) of the compound at which 50% of cell growth is inhibited was obtained.
(§2) Cell viability (%)=(T/C)×100
(§3) T: Intensity of light emitted from a well containing a compound
(§4) C: Intensity of light emitted from a well containing no compound

H1650 = experiment: Test Example 4 growth suppression activity, CellTiter-Glo; type: cell-based; conditions: NCI-H1650, 72 h; H1650, Human lung cancer, 3 days
Procedure: as §1, with “(nM))” for “(μM))”
as §2, §3, §4

A549 = experiment: as above; type: cell-based; conditions: 72 h; A549, Human lung cancer, 3 days
Procedure: as §1, with “(nM))” for “(μM))”
as §2, §3, §4

H358 = experiment: as above; type: cell-based; conditions: NCI-H358, 72 h; H358, Human lung cancer, 3 days
Procedure: as §1, with “(nM))” for “(μM))”
as §2, §3, §4

H2122 = experiment: as above; type: cell-based; conditions: NCI-H2122, 72 h; H2122, Human lung cancer, 3 days
Procedure: as §1, with “(nM))” for “(μM))”
as §2, §3, §4

[3] = tested on: human brain tumor cell line (U-87 MG); experiment: Test Example 6: antitumor effect and toxicity in mouse, subcutaneous U-87 MG transplant; type: in vivo, BALB/cA Jcl-nu/nu mice
Procedure: The day of grouping mice was determined Day 0.
TV (mm^3)=(major axis×minor axis^2)/2
RTV=(TV on evaluation date)/(TV on Day 0)
IR (%)=(1−(RTV of administration group on evaluation date)/(RTV of control group on evaluation date))×100

[4] = tested on: human hematopoietic organ tumor cell line (MV-4-11); experiment: Test Example 7: antitumor effect and toxicity in mouse, subcutaneous MV-4-11 transplant
Procedure: A human hematopoietic organ tumor cell line (MV-4-11) was subcutaneously transplanted in the right chest of each of BALB/cA Jcl-nu/nu mice. After tumor transplantation, the major axes (mm) and minor axes (mm) of the tumors were measured and tumor volumes (TV) were calculated. The mice were assigned to individual groups such that the average TVs of the groups became equal. The day of grouping mice was determined Day 0.
Thereafter, administration was continued as long as a weight loss was acceptable and then evaluated.
The tumor volumes (TV) and body weights (BW) of individual groups were evaluated. As the indexes of antitumor effect and toxicity, the relative tumor volume (RTV) to that of Day 0 and a body weight change (BWC) relative to that of Day 0 were obtained, respectively, in accordance with the following equations and plotted on a chart.
BWC (%)=(BW on evaluation date−BW on Day 0)/(BW on Day 0)×100
T/C (%)=(Number of blood cell component in administration group/Number of blood cell component in control group)×100

[5] = iv, 12 mg/kg, read-out: AUC 0-6 hr in terms of the administered Example compound

Nc1ncnc2c1c(I)cn2[C@@H]1O[C@H](CO)C(OP(=O)(O)O)C1F (stereo partly drawn) [Disodium salt of Example 4, (2R,3R,4S,5R)-5-(4-amino-5-iodo-7H-pyrrolo[2,3-d]pyrimidin-7-yl)-4-fluoro-2-(hydroxymethyl) tetrahydrofuran-3-yl dihydrogen phosphate]
AUC(0-t) [1, 5]: 9.35 µM·h

Nc1ncnc2c1c(Cl)cn2[C@@H]1O[C@H](COP(=O)(O)O)[C@@H](O)[C@@H]1F [Example 5, ((2R,3R,4S,5R)-5-(4-amino-5-chloro-7H-pyrrolo[2,3-d]pyrimidin-7-yl)-4-fluoro-3-hydroxytetrahydrofuran-2-yl)methyl dihydrogen phosphate]
presence of prodrug in mouse (conversion into active compound) [1]: prodrug of the compound (Cl form) of Comparative Example | presence of prodrug in mouse (conversion into active compound) [2]: prodrug of the compound (Cl form) of Comparative Example 3

Nc1ncnc2c1c(Cl)cn2[C@@H]1O[C@H](COP(=O)(O)O)[C@@H](O)[C@@H]1F [Disodium salt of Example 5, ((2R,3R,4S,5R)-5-(4-amino-5-chloro-7H-pyrrolo[2,3-d]pyrimidin-7-yl)-4-fluoro-3-hydroxytetrahydrofuran-2-yl)methyl dihydrogen phosphate]
AUC(0-t) ([1]; intravenous, 11 mg/kg, read-out: AUC 0-6 hr in terms of Example 5): 0.08 µM·h

Nc1ncnc2c1c(Br)cn2[C@@H]1O[C@H](CO)[C@@H](O)[C@@H]1F [Comparative Example 1, (2R,3R,4S,5R)-5-(4-amino-5-bromo-7H-pyrrolo[2,3-d]pyrimidin-7-yl)-4-fluoro-2-(hydroxymethyl) tetrahydrofuran-3-ol]
IC50 (DU145): 0.09 µM | AUC(0-t) ([2]; male, Balb/cA, oral, 50 mg/kg (0.14 mmol/kg), 0.5% HPMC, mouse plasma, administered compound, read-out: AUC 0-6 hr): 20.2 µM·h | IC50 (H1650): 0.011 µM | IC50 (A549): 0.024 µM | IC50 (H358): 0.069 µM | IC50 (H2122): 0.017 µM

Nc1ncnc2c1c(Br)cn2[C@@H]1O[C@H](COP(=O)(O)O)[C@@H](O)[C@@H]1F [Example 1, ((2R,3R,4S,5R)-5-(4-amino-5-bromo-7H-pyrrolo[2,3-d]pyrimidin-7-yl)-4-fluoro-3-hydroxytetrahydrofuran-2-yl)methyl dihydrogen phosphate]
presence of prodrug in mouse (conversion into active compound) [1]: prodrug of the compound (Br form) of Comparative Example 1 | presence of prodrug in mouse (conversion into active compound) [2]: prodrug of the compound (Br form) of Comparative Example 1

Nc1ncnc2c1c(Br)cn2[C@@H]1O[C@H](COP(=O)(O)O)[C@@H](O)[C@@H]1F [Disodium salt of Example 1, ((2R,3R,4S,5R)-5-(4-amino-5-bromo-7H-pyrrolo[2,3-d]pyrimidin-7-yl)-4-fluoro-3-hydroxytetrahydrofuran-2-yl)methyl dihydrogen phosphate]
AUC(0-t) ([1]; iv, 26 mg/kg, read-out: AUC 0-6 hr in terms of Example 1): 0.15 µM·h

Nc1ncnc2c1c(I)cn2[C@@H]1O[C@H](COP(O)(O)=S)[C@@H](O)[C@@H]1F [Disodium salt of Example 3, O-(((2R,3R,4S,5R)-5-(4-amino-5-iodo-7H-pyrrolo[2,3-d]pyrimidin-7-yl)-4-fluoro-3-hydroxytetrahydrofuran-2-yl)methyl) O,O-dihydrogen phosphorothioate]
AUC(0-t) [1, 5]: 0.18 µM·h

Nc1ncnc2c1c(I)cn2[C@@H]1O[C@H](COP(=O)(O)O)[C@@H](O)[C@@H]1F [Disodium salt of Example 2, ((2R,3R,4S,5R)-5-(4-amino-5-iodo-7H-pyrrolo[2,3-d]pyrimidin-7-yl)-4-fluoro-3-hydroxytetrahydrofuran-2-yl)methyl dihydrogen phosphate]
AUC(0-t) [1, 5]: 0.64 µM·h

Nc1ncnc2c1c(I)cn2[C@@H]1O[C@H](COP(=O)(O)O)[C@@H](O)[C@@H]1F [Example 2, ((2R,3R,4S,5R)-5-(4-amino-5-iodo-7H-pyrrolo[2,3-d]pyrimidin-7-yl)-4-fluoro-3-hydroxytetrahydrofuran-2-yl)methyl dihydrogen phosphate]
continuation of administration compared to Comparative Example 2-compound administration group ([3]; administration continued until weight loss 20% or more, Day 13 vs Day 6): continued longer | effect on body weight (BWC) ([3]; oral 14.4 mg/kg/day every day): mild | antitumor effect (IR based on RTV) ([3]; oral 14.4 mg/kg/day every day, final day of evaluation Day 13, compared with Comparative Example 2 12 mg/kg/day, Day 6): high antitumor effect | continuation of administration compared to Comparative Example 2-compound administration group ([4]; Day 15 vs Day 11 (Comparative Example 2 oral 12 mg/kg/day)): continued longer | effect on body weight (BWC) ([4]; osmotic pump 20 mg/kg/day for 14 days): low | hematological toxicity (lymphocytes, monocytes T/C) ([4]; osmotic pump 20 mg/kg/day for 14 days, Day 15): low | antitumor effect (RTV) ([4]; osmotic pump 20 mg/kg/day for 14 days, final day Day 15): remarkable antitumor effect (tumor regression was confirmed) | presence of prodrug in mouse (conversion into active compound) [2]: prodrug of the compound (I form) of Comparative Example 2

Source: US20220267365A1, “NOVEL PHOSPHATE ESTER COMPOUND HAVING PYRROLOPYRIMIDINE SKELETON OR PHARMACEUTICALLY ACCEPTABLE SALT THEREOF” (TAIHO PHARMACEUTICAL CO., LTD., priority 2019, published 2022)
